The text below walks through data of PubChem BioAssay AID1996.

Each structure is given as a SMILES string. In brackets after ≈: the same amount, converted by molar mass.

The conditions of the series: buffer; pH 7.4; 200.0 µM.
On to `CC(=O)N1CCN(C(=O)CNC(=O)c2ccc(C)s2)CC1`, for which the solubility (kinetic) is > 46.4 µg/mL.

Consider `O=C(NC1CC(=O)c2sccc21)c1cccc(C(F)(F)F)c1` (centres undefined), for which the kinetic solubility is > 48.8 µg/mL. Next, `C1CCC2S[C@H]3CCCCC3NC2C1` (some centres undefined): 25.3 µg/mL (≈ 120 µM); `COc1ccc(CNC(=O)COC(=O)c2ccc(S(=O)(=O)N3CCCCC3)cc2)cc1`: 2.1 µg/mL (≈ 4.7 µM); `CSc1cccc(NC(C)C(=O)NCc2ccccc2)c1` (centres undefined): 37.4 µg/mL (≈ 124 µM). Turning to `Nc1nc(Cl)nc2c1ncn2[C@@H]1O[C@H](CO)[C@@H](O)[C@H]1O`, the solubility (kinetic) is > 45.3 µg/mL. `CC(=O)Nc1cccc(NC(=O)Nc2cccc3ccccc23)c1`: the solubility (kinetic) was 0.8 µg/mL (≈ 2.5 µM). In the case of `CCc1cccc(OC2OC(CO)C(O)C(O)C2NC(C)=O)c1` (centres undefined), the kinetic solubility is > 48.8 µg/mL.

With `Cl.O=C(NCCN1CCOCC1)c1ccc(S(=O)(=O)Nc2ccccc2)cc1`, the solubility (kinetic) was > 63.9 µg/mL. In the case of `S=C(NC1CCCCC1)N1CCCCC1` it was 26.3 µg/mL (≈ 116 µM). Next, `COc1cccc(NC(=S)Nc2ccc(F)cc2)c1`: 28.7 µg/mL (≈ 104 µM). Next, `CC(C)Oc1ccc(Cn2c(=O)oc3ccccc32)cc1`: 0.7 µg/mL (≈ 2.47 µM).

Take `CC(=O)c1sc(NC(=O)c2ccc(Cl)cc2)nc1C`: the solubility (kinetic) came out at 0.5 µg/mL (≈ 1.7 µM). In the case of `O=C(COC(=O)c1ccc(O)cc1)NCCC1=CCCCC1` it was > 45.5 µg/mL.

Consider `COc1ccc(CC(=O)Nc2cccc3ncccc23)cc1OC`, for which the solubility (kinetic) was > 48.4 µg/mL. On to `CCOc1ccc(NC(=S)NCCCN2CCOCC2)cc1`, for which the solubility (kinetic) is > 48.5 µg/mL. With `O=C(NCc1ccc(Cl)cc1)c1nccnc1CO`, the kinetic solubility turned out to be 40.5 µg/mL (≈ 146 µM). In the case of `O=C(/C=C/c1ccco1)N1CCN(S(=O)(=O)c2ccccc2)CC1`, the kinetic solubility is > 52 µg/mL. In the case of `N#Cc1c(Cl)nsc1NCCN1CCOCC1` it was > 40.9 µg/mL; in that of `COc1ccc(Cl)cc1N1C(=O)c2cccnc2C1=O`, > 43.3 µg/mL; in that of `O=C(Nc1ccc(F)cc1)N1CCCCCC1`, > 35.4 µg/mL.

The molecule `CCC(C)[C@H](NC(=O)Nc1ccc(C)cc1C)C(=O)O` (some centres undefined) displayed a kinetic solubility of 31.8 µg/mL (≈ 114 µM). Next, `COc1ccc2cc3cc(C(=O)NCCC(C)C)oc3nc2c1`: < 0.3 µg/mL; `COc1cc(C(=O)OCC(=O)NC2CC2)ccc1OCCC(C)C`: 6.8 µg/mL (≈ 20.3 µM); `CCCC(=O)Nc1ccc(NCc2ccc(C)s2)cc1`: > 43.3 µg/mL. Molecule `c1cc2c3c(cccc3c1)C(N1CCOCC1)=N2` registered a solubility (kinetic) of 34.8 µg/mL (≈ 146 µM). With `COc1cc(C)nc(-c2csc(C)n2)n1`, the kinetic solubility was 28.6 µg/mL (≈ 129 µM). Next, `Cc1ccc(N2CC(C(=O)Nc3cccnc3)CC2=O)cc1C` (centres undefined): 31.3 µg/mL (≈ 101 µM); `Cc1ccc(OCC(=O)NCCCNC(=O)c2cnccn2)cc1C`: 49.9 µg/mL (≈ 146 µM). Take `Cc1ccc(NC(=O)c2ccccc2NC(=O)c2cccnc2)cc1`: the kinetic solubility was < 0.2 µg/mL. In the case of `COc1cc(NC(=O)CCN2CCN(C)CC2)cc(OC)c1` it was > 46.1 µg/mL; in that of `ONC(=Nc1ccccc1Cl)c1c(F)cccc1F`, 19 µg/mL (≈ 67.2 µM); in that of `O=C(COC(=O)c1cccs1)Nc1ccccc1[N+](=O)[O-]`, 2 µg/mL (≈ 6.53 µM).

Turning to `CCOc1ccc(C(=O)Nc2cccc3ncccc23)cc1Cl`, the solubility (kinetic) amounted to 1.1 µg/mL (≈ 3.37 µM). Next, `CCOc1ccccc1NC(=O)COc1cccnc1[N+](=O)[O-]`: 7.5 µg/mL (≈ 23.6 µM). With `Cc1ccc(CNC(=O)C2CSC3(C)CCC(=O)N23)cc1` (centres undefined), the kinetic solubility was > 45.7 µg/mL.

For the molecule `Cc1cccc(C)c1NC(=O)CNC(=O)c1cccnc1`, the kinetic solubility is > 42.5 µg/mL.

Take `CC1(C)CC(=O)C2=C(C1)OC(N)=C(C#N)C2c1ccc[nH]1` (centres undefined): the solubility (kinetic) is > 42.5 µg/mL. Next, `O=S(=O)(c1ccccc1)c1nc(-c2ccccc2Cl)oc1NCCCN1CCOCC1`: 3.6 µg/mL (≈ 7.79 µM); `COc1ccc(C(=O)CC(=O)Nc2ccc([N+](=O)[O-])cc2)cc1`: 2.6 µg/mL (≈ 8.27 µM). `CCN(CC)CC(O)COC(c1ccccc1)c1ccccc1` (centres undefined): the kinetic solubility was 41.8 µg/mL (≈ 133 µM). In the case of `Cc1cc(Cl)cc(C)c1OCCNCc1ccccc1.O=C(O)C(=O)O` it was 44.5 µg/mL; in that of `N#CC1=C(N)Oc2cc(N)ccc2C1c1ccc(Cl)cc1` (centres undefined), 3.4 µg/mL (≈ 11.4 µM); in that of `Cc1nn(CC(=O)c2ccc(Cl)s2)c(C)c1[N+](=O)[O-]`, > 45 µg/mL. Next, `CCN(CC)c1nc(-c2ccccc2)nc2c1sc(=S)n2CC`: < 0.2 µg/mL; `O=C(/C=C/c1ccccc1)NCCc1nc2ccccc2[nH]1`: 23.7 µg/mL (≈ 81.3 µM); `CCOCCOc1cccc(C(=O)NC(C)c2ccc3ccccc3c2)c1` (centres undefined): 1.6 µg/mL (≈ 4.4 µM). Next, `Cc1nc(C(=O)NCC(=O)c2ccccc2)c(C(F)(F)F)o1`: > 46.8 µg/mL; `O=[N+]([O-])c1ccc2c(c1)nc1n2CCSC1`: > 35.3 µg/mL; `CC(=O)Nc1ccc(NC(=O)[C@H](C)NC(=O)c2ccco2)cc1`: > 47.3 µg/mL.

Take `CC1=CCC2C(=O)N(c3ccc(S(N)(=O)=O)cc3)C(=O)C2C1` (centres undefined): the solubility (kinetic) was > 48.1 µg/mL. `COc1ccc(CNCc2cccc(C)c2)cc1.O=C(O)C(=O)O`: the solubility (kinetic) was > 49.7 µg/mL.

With `O=C(CN1C(=O)NC2(CCc3ccccc32)C1=O)Nc1c(Cl)cccc1Cl` (centres undefined), the solubility (kinetic) was > 60.6 µg/mL. On to `Cc1nc(C(F)(F)F)ccc1C(=O)Nc1ccc2ccccc2n1`, for which the kinetic solubility turned out to be 3.3 µg/mL (≈ 9.96 µM).

Turning to `CCOC(=O)c1cc(-c2csc(COc3ccccc3Cl)n2)on1`, the solubility (kinetic) was < 0.4 µg/mL. `CC(C)CCNC(=O)C1CC(=O)N(CCc2ccccc2)C1` (centres undefined): the solubility (kinetic) is > 45.4 µg/mL. In the case of `CC(=O)c1cn(CC(=O)Nc2ccccc2F)c2ccccc12` it was 9.4 µg/mL (≈ 30.3 µM); in that of `N#C/C(=C\c1ccncc1)c1nc2ccccc2[nH]1`, 24.8 µg/mL (≈ 101 µM); in that of `Cc1nc2c(C)cccn2c(=O)c1NC(=O)c1ccco1`, > 42.5 µg/mL.

As to `COc1ccc(CC(=O)OCC(=O)NC2CCCC(C)C2C)cc1` (centres undefined), the solubility (kinetic) was > 50 µg/mL. In the case of `CCS(=O)(=O)NCCNc1ccc([N+](=O)[O-])cc1` it was > 41 µg/mL; in that of `Cc1ccc(-c2cc(C(=O)NC3CCCCC3)no2)cc1`, < 0.3 µg/mL; in that of `Cc1ccccc1OCC(=O)NCCCNC(=O)c1ccncc1`, 39.8 µg/mL (≈ 122 µM).

Consider `CNC(=O)c1sc(-c2ccccn2)nc1C`, for which the kinetic solubility was > 35 µg/mL. Next, `COc1ccc(NC(=O)CNC(=O)Cc2cccc3ccccc23)cc1`: 4.3 µg/mL (≈ 12.3 µM); `CC1CN(C(=O)/C=C/c2ccc(SC(F)F)cc2)CC(C)O1` (centres undefined): 36.3 µg/mL (≈ 111 µM). Next, `O=C(Nc1ccc2c(c1)CCC2)c1ccc(Br)s1`: < 0.7 µg/mL; `CCOC(=O)C1=C(N)c2ccccc2CC1C1CCCC1` (centres undefined): 0.8 µg/mL (≈ 2.8 µM); `CCOc1cccc(C(=O)Nc2ccncc2)c1`: > 36.3 µg/mL. `O=C(Nc1ccc(Br)cn1)c1ccc(Cl)s1`: the kinetic solubility amounted to 1.4 µg/mL (≈ 4.41 µM). In the case of `Nc1nc(-c2ccccc2)c(-c2ccccc2)o1` it was > 35.4 µg/mL. Turning to `O=C(O)C1CCCN1S(=O)(=O)c1ccc(Br)cc1` (centres undefined), the kinetic solubility was > 50.1 µg/mL. `Cc1[nH]c2ccccc2c1C(O)CN1CCC2(CC1)OCCO2` (centres undefined): the solubility (kinetic) was > 47.5 µg/mL. In the case of `COc1ccc(S(=O)(=O)NC(Cc2ccccc2)C(=O)O)cc1` (centres undefined) it was > 50.3 µg/mL; in that of `O=C(c1cccc(C(F)(F)F)c1)N1CCOc2ccccc21`, 37.5 µg/mL (≈ 122 µM).

Turning to `O=C(Nc1cccc(O)c1)c1cccc(C(=O)Nc2cccc(O)c2)c1`, the kinetic solubility worked out at 1.8 µg/mL (≈ 5.17 µM). Next, `CCCCc1ccc(NC(=O)Nc2cnccn2)cc1`: 1.1 µg/mL (≈ 4.07 µM).

Consider `O=C(Cc1ccsc1)Nc1ccc2c(c1)OCO2`, for which the kinetic solubility is > 39.2 µg/mL. Turning to `CC1(C)Cc2ccccc2C(CSc2ccccc2C(=O)O)=N1`, the solubility (kinetic) was found to be 43.1 µg/mL (≈ 132 µM). Next, `Cn1c(SCC(=O)NC2CCCC2)nnc1-c1ccccn1`: > 47.6 µg/mL. In the case of `CC1CC(C)CN(CC(=O)c2c[nH]c3ccccc23)C1` (centres undefined) it was 37.8 µg/mL (≈ 140 µM); in that of `O=C1CCc2ccccc2N1`, 15.9 µg/mL (≈ 108 µM). In the case of `CC(=O)c1ccc(NC(=O)c2ccc3nc(C)sc3c2)cc1` it was 1.9 µg/mL (≈ 6.12 µM). Regarding `O=C(NCC(c1ccco1)N1CCCCC1)c1ccc(S(=O)(=O)Nc2ccccc2Cl)cc1` (centres undefined), the kinetic solubility turned out to be 17.7 µg/mL (≈ 36.3 µM). Next, `COc1ccccc1NCCC(=O)OCC(=O)Nc1cc([N+](=O)[O-])ccc1F`: 51.8 µg/mL (≈ 132 µM); `CC1CCCCN1C(C(=O)O)c1ccccc1.Cl` (centres undefined): > 40.5 µg/mL.

As to `O=C(O)c1ccc(N/C(=N\S(=O)(=O)c2ccc(Cl)cc2)c2ccccc2)cc1`, the kinetic solubility was determined as 56.3 µg/mL (≈ 136 µM). Next, `Cc1ccc(N=Cc2c(O)c3ccccc3oc2=O)c(C)c1`: < 0.6 µg/mL; `O=C(O)c1ccc(CNC(=O)c2ccc(C(F)(F)F)cc2)cc1`: > 48.5 µg/mL; `S=P(N1CC1)(N1CC1)N1CC1`: > 28.4 µg/mL. In the case of `CC1CCCCC1NC(=O)c1ccc2c(c1)OCCO2` (centres undefined) it was > 41.3 µg/mL.

As for `CCCCCn1c(=O)c(C(=O)Nc2cccc(C)c2)c(O)c2ccccc21`, the kinetic solubility was < 0.4 µg/mL. In the case of `Cc1nc(N)sc1C(=O)OCC(C)C` it was > 32.1 µg/mL; in that of `CC1CCCC(C)N1C(=O)COc1ccc([N+](=O)[O-])cc1Cl` (centres undefined), > 49 µg/mL.

On to `CCCNC(=O)CSc1nc2ccccc2c(=O)n1CCC`, for which the solubility (kinetic) amounted to 27.1 µg/mL (≈ 84.8 µM). In the case of `O=S(=O)(c1ccc(-c2ccon2)s1)N1CCOCC1` it was > 45.1 µg/mL; in that of `O=C(/C=C/c1ccc([N+](=O)[O-])cc1)N1CCN(Cc2ccccc2)CC1`, 1.7 µg/mL (≈ 4.84 µM). Next, `NC(=O)c1oc2ccccc2c1NC(=O)c1ccc([N+](=O)[O-])o1`: 1.8 µg/mL (≈ 5.71 µM). Next, `O=C(COC(=O)Cc1ccc(Br)cc1)NC1CCCC1`: > 51 µg/mL; `Cc1cc(NC(=O)COC(=O)C(C)Oc2ccc(Cl)cc2Cl)no1` (centres undefined): 42.2 µg/mL (≈ 113 µM); `O=C1CSC(c2ccccc2)N1c1ccc(F)cc1F` (centres undefined): 38 µg/mL (≈ 130 µM). Take `O=C(N/C=C/n1cnc2cc(C(F)(F)F)ccc21)c1ccccc1F`: the kinetic solubility is 4.9 µg/mL (≈ 14 µM). Next, `COc1cccc(NC(=O)[C@@H]2CCC(=O)N2C2OC(=O)c3ccccc32)c1` (some centres undefined): > 55 µg/mL.

Turning to `CC(=O)N1CCN(c2ccccc2NC(=O)c2cccs2)CC1`, the solubility (kinetic) is > 49.4 µg/mL.
